In patent US10837968B2, “Photoactivatable voltage sensitive dyes” (THE REGENTS OF THE UNIVERSITY OF CALIFORNIA, priority 2014, dated 2020):
“And” between values parts separate entries of the source, which are not always exact repeats. Equal values may be shown once. “Also recorded” adds a separate entry of the source.

Assays:
[1] = Spectroscopic characterization of SPOT in PBS, pH 7, before and after UV illumination; type: physicochemical
Procedure: (§1) FIGS. 1A-1E. Illumination of SPOT dramatically increases fluorescence. Spectroscopic characterization of SPOT in PBS, pH 7. a) Absorbance profile of SPOT before (grey dotted trace) and after (green trace) illumination at 365 nm. The UV-vis spectrum of photoactivated SPOT is identical to a known standard of VF2.1.C1 (black trace). b) Emission spectrum of SPOT before (grey dotted trace) and after illumination (green trace) at 365 nm. c) HEK cells loaded with 200 nM SPOT prior to illumination. d) Cells from c) after illumination with 390 nm light for 30 seconds. e) Quantification of cellular fluorescence from cells stained with SPOT pre- and post-UV photoactivation. Illumination as in panel d) gives a 12-fold increase in fluorescence intensity (n=3).
FIG. 2. Characterization of SPOT photoproducts.
SPOT is readily available in one step from previously reported VoltageFluor compounds (Miller, et al., Natl Acad Sci USA, 2012, 109:2114). Alkylation of VF2.1.C1 with 2-nitro-4,5-dimethoxybenzylbromide in DMF provides SPOT as an analytically pure sample after purification via HPLC. Larger quantities are available through an alternate route in which the sulfonefluorescein head-group is first alkylated and then coupled to the phenylenevinylene molecular wire to give SPOT. We examined the photophysical behavior and characteristics of SPOT under simulated physiological conditions (PBS, pH 7). […] Emission from SPOT is minimal (FIG. 1B, grey trace), as reflected by its low fluorescence quantum yield. UV illumination of SPOT promptly delivers VF, as measured by complete recovery of absorbance profiles characteristic of VF2.1.C1 (FIG. 1A, green and black traces) and a 25-fold increase in fluorescence emission (FIG. 1B green trace).

[2] = test system: human embryonic kidney cells (HEK 293); experiment: Cellular fluorescence of SPOT-stained HEK cells pre- and post-UV photoactivation; type: cell-based; settings: HEK cells loaded with 200 nM SPOT; 390 nm light for 30 seconds; n=3
Procedure: as §1
We next turned our attention to assessing the properties of SPOT in living cells. […] Illumination with 390 nm (30 s) light results in an immediate increase in cell membrane-associated fluorescence characteristic of VoltageFluor staining (FIG. 1D). […] Membrane-associated fluorescence depends on prior UV illumination, as examination of areas of the same sample not exposed to light show very little cellular fluorescence. […] Following illumination, the cells stained with SPOT become bright and voltage-sensitive. […]

## COc1cc(COc2cc3oc4cc(=O)c(Cl)cc-4c(-c4ccc(/C=C/c5ccc(/C=C/c6ccc(N(C)C)cc6)cc5)cc4S(=O)(=O)O)c3cc2Cl)c([N+](=O)[O-])cc1OC [SPOT, 2-(2,7-dichloro-6-((4,5-dimethoxy-2-nitrobenzyl)oxy)-3-oxo-3H-xanthen-9-yl)-5-((E)-4-((E)-4-(dimethylamino)styryl)styryl)benzenesulfonic acid]
[1]; PBS, pH 7, before illumination
  absorbance maximum (λmax / strong absorbance): 400 nm
  fluorescence quantum yield: low
[1]; PBS, pH 7, illumination at 365 nm
  increase in fluorescence emission after UV illumination: 25 fold
[1]; phosphate buffered saline, pH 7.0, 365 nm light
  photoproduct of irradiation (HPLC and mass spectrometry): clean conversion of SPOT into VF2.1.C1; also recorded: cleanly gives VF2.1.C1
[2]
  increase in mean cellular fluorescence intensity following irradiation: 12±1.2 fold and 12 fold
